In assay [1] the test system is 2008 cell line (serous cystadenocarcinoma of the ovary). Kind of assay: Cell growth assay (crystal violet dye), 2008 cells. It is filed as cell-based, human. As to conditions: read-out: IC50 (cell growth inhibition). Here is the method:
(§1) For the determination of the in vitro antitumour activities, the compounds of the invention were assayed in a panel of sensible, resistant and refractary tumour cell lines, which are only exemplary for the antitumour activity of the inventive compounds, and are not to be construed as limiting their antitumour activities only to the cell lines set forth herein. Cell lines. The 2008 cell line was established from a patient with serous cystadenocarcinoma of the ovary and the cDDP-resistant C13* subline, about 15-fold resistant to cDDP, was derived from the parent 2008 cell line by monthly exposure to cDDP, followed by chronic exposure to step-wise increases in cDDP concentration (Cancer Research 52, 1895, 1992). The cell lines were grown as monolayers in RPMI 1640 medium containing 10% heat-inactivated fetal bovine serum and 50 μg/mL gentamycin sulfate. All cell media and serum were purchased from (Lonza, Verviers, Belgium). Cultures were equilibrated with humidified 5% CO2 in air at 37° C. All studies were performed in Mycoplasma negative cells, as routinely determined with the MycoAlert Mycoplasma detection kit (Lonza, Walkersville, Md., USA).
(§2) Cell growth assay. Cell growth was determined by a modification of the crystal violet dye assay (Analytical biochemistry, 182, 16 1989). On selected days, after removal of the tissue culture medium, the cell monolayer was fixed with methanol prior to staining with 0.2% crystal violet solution in 20% methanol for at least 30 minutes. After washing several times with distilled water to remove the dye excess, the cells were let to dry. The incorporated dye was solubilized in acidic isopropanol (1N HCl : 2-propanol, 1:10). After appropriate dilution, dye was determined spectrophotometrically at 540 nm. The extracted dye was proportional to cell number. Percentage of cytotoxicity was calculated by comparing the absorbance of cultures exposed to the compounds of the invention to non-exposed (control) cultures. Percentage of cytotoxicity is here reported as the half maximal inhibitory concentration (IC50), which is a measure of the effectiveness of a compound of the invention in inhibiting cell growth by half with respect to control (100%).

The test system of assay [2] is cDDP-resistant C13* subline. Kind of assay: Cell growth assay (crystal violet dye), C13* cells. It is filed as cell-based, human. As to conditions: read-out: IC50 (cell growth inhibition). Here is the method: as §1, §2
Assay [3] relates to human ovarian cancer cell line A2780. Kind of assay: Cell growth assay (crystal violet dye), A2780 cells. Format: cell-based. To be noted: 72 hrs exposure, read-out: IC50 (cell growth inhibition). Here is the method: (§3) The human ovarian cancer cell line A2780 and a platinum-resistant subline selected in vitro by stepwise increases of cisplatin concentration in the medium were from University of Modena and Reggio Emilia. The cisplatin resistant A2780 cells were challenged weekly with 50 uM cisplatin for 1 hr. Both cell lines were maintained in RPMI 1640 medium with 10% (vol/vol) fetal calf serum, penicillin (62.9 mg/L), and streptomycin (100 mg/L) (GIBCO).
as §2

Assay [4] concerns cisplatin resistant A2780 cells (A2780/CP). Kind of assay: Cell growth assay (crystal violet dye), A2780/CP cells. Format: cell-based, human. To be noted: 72 hrs exposure, read-out: IC50 (cell growth inhibition). Here is the method:
as §3, §2

For the next assay, the system named is HeLa cells. Kind of assay: Cell proliferation MTT assay, HeLa. It is filed as cell-based. As to conditions: Homo sapiens, 24 h, read-out: MTT cell proliferation, percentage compared to control cells considered as 100%; for activity at 1 µM: compound at 1 uM; for activity at 10 µM: compound at 10 uM. Here is the method: (§4) Cell cultures and treatments. Human tumor cells (HeLa from uterin cervix and HCT116 from colon carcinoma) were grown at 37° C. in humidified atmosphere containing 5% CO2 in D-MEM supplemented with 10% FCS, 4 mM glutamine, 2 mM Na pyruvate, 100 U/mL penicillin and 0.1 mg/mL streptomycin (all reagents were from Celbio, Pero, Italy). HeLa cells are the most widely used human tumor cell line; HCT 116 colon carcinoma cell line has proven to be extremely resistant to conventional chemotherapy. Cells were treated with the compounds of the invention at a fixed dose of 10 uM for 24 h, eventually followed by 24 of recovery in drug free medium. As a positive control of growth inhibition, cells were treated with 10 uM etoposide. Some of the inventive were also assayed at a dose of 1 uM.
(§5) Cell proliferation assays—MTT assay. Cells are seeded in 96 multiwell-plates at the density of 10^3/100 μl (except fibroblasts that are seeded at the density of 1.5×10^3/100 μl). Cells are treated 24 h later with the drug for 24 h eventually followed by 24 h of recovery in drug-free medium. At the end of the treatments, 20 μl of CellTiter 96 Non-Radioactive Cell Proliferation Assay (MTT; Promega, Milano, Italy) are added to each well. Plates are then incubated for 4 h at 37° C. in the dark and analyzed with a reader of microplates (Gio. De Vita, Roma, Italy) at 492 nm. Experiments are performed in quadruplicate and repeated three times. Data are expressed in the following Tables 2a-c as the percentage compared to control cells considered as 100%.

Assay [5] deals with HCT 116 colon carcinoma cell line. Kind of assay: Cell proliferation MTT assay, HCT 116. It is filed as cell-based. As to conditions: Homo sapiens, HCT-116, 24 h, read-out: MTT cell proliferation, percentage compared to control cells considered as 100%; for activity at 1 µM: HCT 116, compound at 1 uM, 24 h exposure; for activity at 10 µM: HCT 116, compound at 10 uM. Here is the method:
as §4, §5
In general terms: Formazan colour is commonly taken as a measure of viable cells.

Where [6] appears, read: Homo sapiens, 2008 cells, 72 hrs exposure.
Setting [7] is: Homo sapiens, C13* cells, 72 hrs exposure.
Where [8] appears, read: 24 h + 24 h recovery in drug-free medium.

By IC50 is commonly meant the concentration at which inhibition is half-maximal.

Like-named read-outs stand apart in the source and are kept apart here.

For `COc1ccc2c(CCC(c3ccccc3)c3ccccc3)c3[n+](cc2c1OC)CCc1cc2c(cc1-3)OCO2` [NAX018, 13-(3,3-diphenylpropyl)-9,10-dimethoxy-5,6-dihydrobenzo[g]-1,3-benzodioxolo[5,6-a]quinolizinium iodide], the IC50 was 4 µM in assay [1] (setting [6]); 660 nM in assay [2] (setting [7]); 400 nM in assay [3] (Homo sapiens); 1000 nM in assay [4] (Homo sapiens, A2780C/P). For the same compound, the figures for the activity at 1 µM (with HeLa cells (setting [8]); in the assay on HeLa cells; in assay [5]) were 45.8%, 64% and 68.2%, respectively. For the same compound, the activity at 10 µM in the assay on HeLa cells (setting [8]) came out at 11.3%; with HeLa cells it was 40.6%; in assay [5] (setting [8]) it was 13.7%; in assay [5] (24 h) it was 30.6%.

With `COc1ccc2cc3[n+](cc2c1OC)CCc1cc2c(cc1-3)OCO2` [Berberine, 9,10-dimethoxy-5,6-dihydrobenzo[g]-1,3-benzodioxolo[5,6-a]quinolizinium chloride, reference compound], the IC50 in assay [1] (Homo sapiens, 72 h) stood at 10 µM; in assay [2] (Homo sapiens, C13, 72 h), 6000 nM; in assay [3] (Homo sapiens) it was 4000 nM; in assay [4] (Homo sapiens, A2780C/P) it was 2500 nM. Besides, the activity at 1 µM with HeLa cells (setting [8]) came out at 168%; in the assay with HeLa cells, 178%; in assay [5], 201%. For the same compound, the activity at 10 µM was 92.9% with HeLa cells (setting [8]), 121% with HeLa cells, 93.3% in assay [5] (setting [8]) and 166% in assay [5] (24 h).

Regarding `COc1ccc2c(CCc3c[nH]c4ccccc34)c3[n+](cc2c1OC)CCc1cc2c(cc1-3)OCO2` [NAX019, 13-[2-(indol-3-yl)ethyl]-9,10-dimethoxy-5,6-dihydrobenzo[g]-1,3-benzodioxolo[5,6-a]quinolizinium iodide], the activity at 10 µM with HeLa cells (setting [8]) is 33.5%; with HeLa cells, 62.8%; in assay [5] (setting [8]), 32.1%; in assay [5] (24 h), 6%.

As to `O=c1[nH]cc(F)c(=O)[nH]1` [5-FU, 5-fluoro-2,4(1H,3H)-pyrimidinedione, reference compound], the values for the IC50 in assay [1] (setting [6]) and in assay [2] (setting [7]) were 10 µM and 8000 nM, respectively.

For `COc1ccc(CCc2c3[n+](cc4c(OC)c(OC)ccc24)CCc2cc4c(cc2-3)OCO4)cc1` [NAX013, 13-[2-(4-methoxyphenyl)ethyl]-9,10-dimethoxy-5,6-dihydrobenzo[g]-1,3-benzodioxolo[5,6-a]quinolizinium iodide], the IC50 in assay [1] (setting [6]) was 6.6 µM; in assay [2] (setting [7]), 2400 nM; in assay [3] (Homo sapiens), 1000 nM; in assay [4] (Homo sapiens, A2780C/P) it was 1000 nM. The activity at 10 µM in the assay on HeLa cells (setting [8]) was found to be 60.8%; with HeLa cells, 74.5%; in assay [5] (setting [8]), 60.2%; in assay [5] (24 h), 10%. In addition, the activity at 1 µM in assay [5] is 58.1%.

For the compound `N.N.[Cl][Pt][Cl]` [cDDP, cis-diaminedichloroplatinum, reference compound], the IC50 in assay [1] (2008 cells, 72 hrs exposure) came to 3.6 µM; in assay [2] (C13* cells, 72 hrs exposure), 17000 nM; in assay [3], 2000 nM; in assay [4] it was 20000 nM.

Regarding `COc1ccc2c(CCc3ccc(Cl)cc3)c3[n+](cc2c1OC)CCc1cc2c(cc1-3)OCO2` [NAX014, 13-[2-(4-chlorophenyl)ethyl]-9,10-dimethoxy-5,6-dihydrobenzo[g]-1,3-benzodioxolo[5,6-a]quinolizinium iodide], the IC50 in assay [1] (setting [6]) turned out to be 5.8 µM; in assay [2] (setting [7]) it was 1800 nM; in assay [3] (Homo sapiens), 1400 nM; in assay [4] (Homo sapiens, A2780C/P) it was 1000 nM. In addition, the activity at 1 µM in the assay on HeLa cells (setting [8]) was 59.4%; in the assay with HeLa cells, 92.1%. The activity at 10 µM in the assay on HeLa cells (setting [8]) worked out at 45.4%; in the assay on HeLa cells, 71.9%; in assay [5] (setting [8]), 15.4%; in assay [5] (24 h), 49.5%.

`COc1ccc2c(CC(=O)n3ccc4cc(Cl)ccc43)c3[n+](cc2c1OC)CCc1cc2c(cc1-3)OCO2` [NAX030, 13-[(5-chloroindol-1-yl)carbonylmethyl]-9,10-dimethoxy-5,6-dihydrobenzo[g]-1,3-benzodioxolo[5,6-a]quinolizinium iodide]: the half-maximal inhibitory concentration (IC50) was determined as 4500 nM in assay [3] (Homo sapiens) and 2500 nM in assay [4] (Homo sapiens, A2780C/P).

For `COc1cc([C@@H]2c3cc4c(cc3[C@@H](O[C@@H]3O[C@@H]5CO[C@@H](C)O[C@H]5[C@H](O)[C@H]3O)[C@H]3COC(=O)[C@H]23)OCO4)cc(OC)c1O` [Etoposide, 4′-demethylepipodophyllotoxin 9-[4,6-O-ethylidene-beta-D-glucopyranoside], reference compound], the figures for the activity at 1 µM (in the assay with HeLa cells (setting [8]); in the assay on HeLa cells; in assay [5]) were 59.5%, 94.3% and 139%, respectively. Further, the activity at 10 µM with HeLa cells (setting [8]) worked out at 1%; in the assay with HeLa cells, 74.8%; in assay [5] (setting [8]) it was 96.2%; in assay [5] (24 h) it was 104%.

For the compound `COc1ccc2c(CCCc3ccccc3)c3[n+](cc2c1OC)CCc1cc2c(cc1-3)OCO2` [NAX012, 13-(3-phenylpropyl)-9,10-dimethoxy-5,6-dihydrobenzo[g]-1,3-benzodioxolo[5,6-a]quinolizinium iodide], the IC50 in assay [1] (setting [6]) was 3.6 µM; in assay [2] (setting [7]), 2200 nM; in assay [3] (Homo sapiens), 600 nM; in assay [4] (Homo sapiens, A2780C/P) it was 600 nM. The activity at 10 µM in the assay on HeLa cells (setting [8]) is 41.3%; in the assay with HeLa cells, 72.4%; in assay [5] (setting [8]), 34.8%; in assay [5] (24 h), 0%. In assay [5], the activity at 1 µM was 52.1%.

The values are drawn from patent US8188109B2, “Benzoquinolizinium salt derivatives as anticancer agents” (Naxospharma S.r.l., priority 2009, dated 2012).
